From PMC3017600 (Nucleic Acids Research, 2010)
Where no end group is shown, it is not given here. [ ]: non-standard residue; d: D form. pS = N[C@@H](COP(=O)(O)O)C(=O)O

Experiments:
[1] = system: TopBP1(1–290) double mutants; assay: Fluorescence polarization binding, double mutants; design: species or system human; conditions: putative binding sites in both BRCT1 and BRCT2 disrupted
TopBP1(1–290) wild-type = TopBP1(1–290) wild-type (Homo sapiens, UniProt Q92547); format: binding; conditions: fluorescence polarization; 10 nM fluorescein-labelled peptide; 4°C, 30 min
Chain of TopBP1(1–290) wild-type (Q92547 1-290): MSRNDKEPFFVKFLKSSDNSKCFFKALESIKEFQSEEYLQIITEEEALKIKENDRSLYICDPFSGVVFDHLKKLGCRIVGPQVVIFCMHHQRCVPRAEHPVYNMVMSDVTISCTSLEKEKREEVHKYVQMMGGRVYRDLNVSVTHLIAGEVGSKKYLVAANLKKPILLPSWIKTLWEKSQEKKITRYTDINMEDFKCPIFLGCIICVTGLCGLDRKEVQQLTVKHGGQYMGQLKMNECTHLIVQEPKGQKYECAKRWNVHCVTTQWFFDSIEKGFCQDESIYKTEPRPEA

TopBP1(1–290) [2] = target: TopBP1(1–290) (human, UniProt Q92547 1-290); assay: fluorescence polarisation
Chain of TopBP1(1–290) (human, UniProt Q92547 1-290) (Q92547 1-290): as above

TopBP1(1–290) [3] = assay: Co-precipitation; format: binding, human; conditions: Glutathione Sepharose; no Mg-ATP; SDS–PAGE

Molecule: fluorescein-GGPSPVLAED[pS]EGEG [Rad9, pS387]
- Interaction with TopBP1(1–290) double mutants (in words) [1]: no measurable interaction

Molecule: fluorescein-GGSDTDSH[pS]QDLGSPE [Rad9, pS272]
- Binding to wild-type TopBP1(1–290) (in words) (TopBP1(1–290) wild-type): no significant affinity was observed

Molecule: fluorescein-GGPSPVLAED[pS]EGEG (also: phosphoserine at 387 (Rad9 numbering)) [Rad9, pS387 fluorescein-labelled peptide]
- Kd (TopBP1(1–290) [2]): 2.1 µM

B1: GST-Rad9Tail: GST-fusion with the C-terminus of human Rad9 (amino acids 264–391), expressed in E. coli (protein)
chain: TLSDTDSHSQDLGSPERHQPVPQLQAHSTPHPDDFANDDIDSYMIAMETTIGNEGSRVLPSISLSPGPQPPKSPGPHSEEEDEAEPSTVPGTPPPKKFRSLFFGSILAPVRSPQGPSPVLAEDSEGEG
modifications: left off: GST, N-terminal, kept
- Co-precipitation of TopBP1(1–290) by GST fusion incubated with CK2α in the absence of Mg-ATP (TopBP1(1–290) [3]): failed to co-precipitate detectable
